# Measurements published in paper PMC6753678, “Fueling Open Innovation for Malaria Transmission-Blocking Drugs: Hundreds of Molecules Targeting Early Parasite Mosquito Stages” (Frontiers in Microbiology, 2019).
# Where two headings read alike, the source gives them in different places.
# How the values were obtained:
# [1] = test system: P. falciparum female gametocytes; set-up: method as in Miguel-Blanco et al 2017; settings: TCAMS library screen; ref Miguel-Blanco et al 2017; read-out: Pf FGAA IC50; cited from earlier work
# HepG2 cells = settings: cited from earlier work
# [2] = test system: P. falciparum female gametocytes; test: P. falciparum female gametogenesis assay (Pf FGAA); settings: 1: YES; 0: NO
# [3] = HepG2 value reported with Pf FGAA screen, ref Miguel-Blanco et al 2017
SMILES,IC50 [1] [nM],HepG2 cytoxicity (Pf FGAA screen) (HepG2 cells; [3]) [µM],Is compound selective in assay? Pf FGAA active? [2],HepG2 cytoxicity (Pf FGAA screen) (HepG2 cells) [µM]
CCCOc1c(CCNCCCCNCCc2ccc3ccccc3c2OCCC)ccc2ccccc12.CS(=O)(=O)O [TCMDC-137950],640,1.72,0 (0: NO),–
Clc1ccc(/N=C(/NCCCCCCCN/C(=N\c2ccc(Cl)cc2)Nc2ccc(Cl)cc2)Nc2ccc(Cl)cc2)cc1 [TCMDC-137529],580,2.00,0 (0: NO),–
Br.CCc1c(CCNCCCCCCNCCc2ccc(Br)cc2)ccc(O)c1O [TCMDC-132044],1300,7.96,0 (0: NO),–
CCCc1cc(=O)[nH]c(-n2nc(C)cc2NC(=O)CC(c2ccccc2)c2ccccc2)n1 [TCMDC-124940],1300,>100,1 (1: YES),–
O=C(Nc1cc(C(F)(F)F)cc(C(F)(F)F)c1)Nc1ccc(Cl)c(Cl)c1 [TCMDC-125592],1430,3.07,0 (0: NO),–
CCCN(CC1CC1)c1ncc(-c2cccc(CNCCC3CCCN3C)c2)cn1 (stereo not drawn) [TCMDC-133142],2180,3.09,0 (0: NO),–
O=C(O)C(F)(F)F.O=S(=O)(NCCN1CCCC1)c1ccc(-c2cccc(CNC3Cc4ccccc4C3)c2)cc1 [TCMDC-132215],2540,6.03,0 (0: NO),–
CN1CCCC(CN2CCN(Cc3cccc(-c4ccc(-c5nc6cc(C(F)(F)F)ccc6[nH]5)cc4)c3)CC2)C1.O=C(O)C(F)(F)F (stereo not drawn) [TCMDC-133882],1300,4.07,0 (0: NO),–
Clc1ccc(Nc2nc3ccc(Cl)cc3nc2Nc2ccc(Cl)cc2)cc1 [TCMDC-137772],1910,7.86,0 (0: NO),–
CCCCN(CCCC)CCCCNc1c2ccc(Cl)cc2nc2ccc(OC)cc12.Cl [TCMDC-137460],1970,4.73,0 (0: NO),–
COc1cc(/C=C(\C2=NC(=O)CS2)c2nc3cccnc3n2C)ccc1O [TCMDC-135917],720,21.14,1 (1: YES),–
CCCN(CCC)CCCN(CCCN(CCC)CCC)c1cc(C)nc(Nc2ccc3cc(Br)ccc3c2)n1.Cl [TCMDC-138006],990,3.43,0 (0: NO),–
COc1ccc(CNC2CCN(C)CC2)cc1-c1ccc(S(=O)(=O)NCc2ccccc2)s1.O=C(O)C(F)(F)F [TCMDC-132253],1750,5.50,0 (0: NO),–
Fc1ccc2nc(Nc3nc(-c4ccccn4)cs3)sc2c1 [TCMDC-125540],54.3,58.31,1 (1: YES),–
OCCN1CCN(c2ccc(Nc3ccnc4cc5ccccc5cc34)cc2)CC1 [TCMDC-123915],3340,5.43,0 (0: NO),–
CNCCNCc1ccc(-c2ccc(-c3nc4cc(C(F)(F)F)ccc4[nH]3)s2)cc1.O=C(O)C(F)(F)F [TCMDC-132838],1280,6.10,0 (0: NO),–
Fc1cc(Cl)ccc1Nc1ccnc2cc(-c3ccc(CN4CCOCC4)o3)ccc12 [TCMDC-138393],640,5.62,0 (0: NO),–
COc1ccccc1CNc1ccnc(N2CC(Oc3ccc(F)cc3)C2)n1 [TCMDC-135118],4070,73.68,1 (1: YES),–
COc1cccc(-c2csc(C(=O)NCC3CCN(Cc4ccc(C(C)C)cc4)C3)c2)c1.O=C(O)C(F)(F)F (stereo not drawn) [TCMDC-134439],1370,11.51,0 (0: NO),–
CC(C)c1ccc(CN2CCC(CNC(=O)c3cc(-c4ccccc4F)cs3)C2)cc1.O=C(O)C(F)(F)F (stereo not drawn) [TCMDC-134436],1080,9.14,0 (0: NO),–
CN1CCCC1CCNCc1cccc(-c2cnc(N3CCCC(C)(C)C3)nc2)c1 (stereo not drawn) [TCMDC-133144],1670,4.63,0 (0: NO),–
O=C(O)C(F)(F)F.O=c1[nH]ccc2nc(N[C@@H]3CCNC3)nc(Nc3cc(Cl)cc(Cl)c3)c12 [TCMDC-135052],740,4.79,0 (0: NO),–

SMILES,IC50 [1] [nM],HepG2 cytoxicity (Pf FGAA screen) (HepG2 cells; [3]) [µM],Is compound selective in assay? Pf FGAA active? [2],HepG2 cytoxicity (Pf FGAA screen) (HepG2 cells) [µM]
Br.Oc1ccc(CCNCCCCCCNCCc2ccc(-c3ccccc3)cc2)cc1O [TCMDC-131268],10900,13.18,0 (0: NO),–
O=C(O)C(F)(F)F.O=S(=O)(NCCN1CCCC1)c1ccc(-c2cccc(CNC3Cc4ccccc4C3)c2)s1 [TCMDC-132217],1290,5.50,0 (0: NO),–
OC1CCN(c2cc(-c3ccccn3)nc(-c3ccccn3)n2)CC1 [TCMDC-123786],1540,14.14,0 (0: NO),–
CC(C)c1ccc(CN2CCC(CNC(=O)c3cc(-c4ccc(N(C)C)cc4)cs3)C2)cc1.O=C(O)C(F)(F)F (stereo not drawn) [TCMDC-134440],710,5.85,0 (0: NO),–
CC(C)N1CCN(C(CN2CCN(CCCOc3ccccc3-c3ccccc3)CC2)c2ccc(F)cc2)CC1.Cl (stereo not drawn) [TCMDC-135499],1410,4.32,0 (0: NO),–
Cl.N#Cc1c(F)cc(N2CCC(NCC[C@H](N)Cc3ccc(F)c(F)c3)CC2)cc1F [TCMDC-132121],730,–,0 (0: NO),4.58
CC(C)c1ccc(CN2CCC(CNC(=O)c3cc(-c4cccc(Cl)c4)cs3)C2)cc1.O=C(O)C(F)(F)F (stereo not drawn) [TCMDC-134438],600,6.53,1 (1: YES),–
CCN1CCN(c2ccc(Nc3c4ccccc4nc4ccccc34)cc2)CC1 [TCMDC-124255],1000,4.57,0 (0: NO),–
Cn1c(Nc2cc(C(C)(C)C)on2)nc2cc(Nc3ccnc(Nc4cccc(S(=O)(=O)N5CCOCC5)c4)n3)ccc21 [TCMDC-134098],1190,8.13,0 (0: NO),–
COc1ccc(CNC2Cc3ccccc3C2)cc1-c1ccc(S(=O)(=O)NCCN2CCCC2)c(F)c1.O=C(O)C(F)(F)F [TCMDC-132266],1950,6.03,0 (0: NO),–
CCn1c(-c2nonc2N)nc2c(-c3cccc(NC(=O)Nc4ccc5c(c4)CCC5)c3)ncc(OCCCN)c21.O=C(O)C(F)(F)F [TCMDC-136191],1030,7.42,0 (0: NO),–
CCCCSc1c(CNCCCCCCNCc2ccc3ccccc3c2SCCCC)ccc2ccccc12.CS(=O)(=O)O [TCMDC-137825],970,2.76,0 (0: NO),–
CC(C)(C)c1ccc(CN2CCC(CNC(=O)c3cc(-c4cccc(F)c4)cs3)C2)cc1.O=C(O)C(F)(F)F (stereo not drawn) [TCMDC-134444],1320,6.61,0 (0: NO),–
Cc1cc(-c2ccc(CNC3Cc4ccccc4C3)cc2)ccc1S(=O)(=O)NCCN1CCCC1.O=C(O)C(F)(F)F [TCMDC-132243],1830,5.31,0 (0: NO),–
Cc1cc(C(F)(F)F)cc(-n2ncc(-c3ccc(C(=O)NCc4ccccc4N)cc3)c2N)n1.O=C(O)C(F)(F)F [TCMDC-136658],1460,26.82,1 (1: YES),–
COc1cc2c(OC)cccc2cc1CNCCCCCCNCc1cc2cccc(OC)c2cc1OC.CS(=O)(=O)O [TCMDC-137945],1820,4.90,0 (0: NO),–
Cc1ccc(C(C(=O)Nc2ccc(N3CCNCC3)c(Cl)c2)c2ccccc2)cc1 (stereo not drawn) [TCMDC-134292],660,11.89,1 (1: YES),–
CN(CCc1ccccc1)c1ncc(-c2cccc(CNCCC3CCCN3C)c2)cn1 (stereo not drawn) [TCMDC-133143],1360,2.88,0 (0: NO),–
FC(F)(F)c1cccc(Nc2nc3ccccc3nc2Nc2cccc(C(F)(F)F)c2)c1 [TCMDC-124162],2400,17.68,0 (0: NO),–
CC(C)(C)OC(=O)NCc1ccc(Nc2nnc(-c3cccc(C(=O)NCc4cc(C(F)(F)F)cc(C(F)(F)F)c4)c3)o2)cc1 [TCMDC-135229],3140,21.43,0 (0: NO),–
CC(C)N1CCN(C(CN2CCN(CCCOc3ccc(-c4ccccc4)cc3)CC2)c2ccc(F)cc2)CC1.Cl (stereo not drawn) [TCMDC-135497],1420,2.29,0 (0: NO),–
